Reference: US5710166A, “N-acyl beta amino acid derivatives useful as platelet aggregation inhibitors” (The Monsanto Company, priority 1995, dated 1998)

System: platelet aggregation (Dog PRP)
Assay: In-Vitro Platelet Aggregation in PRP (ADP-induced, dog platelet-rich plasma)
Format: cell-based
Settings: Canis lupus familiaris, ADP 50 um final concentration; for IC50: linear regression of dose response curve, read-out: IC50 (dosage at which 50% of platelet aggregation is inhibited)
Protocol: Healthy male or female dogs were fasted for 8 hours prior to drawing blood; then 30 ml whole blood was collected using a butterfly needle and 30 cc plastic syringe with 3 ml or 0.129M buffered sodium citrate (3.8%). The syringe was rotated carefully as blood was drawn to mix the citrate. Platelet-rich plasma (PRP) was prepared by centrifugation at 975 x g for 3.17 minutes at room temperature allowing the centrifuge to coast to a stop without braking. The PRP was removed from the blood with a plastic pipette and placed in a plastic capped, 50 mL Corning conical sterile centrifuge tube which was held at room temperature. Platelet poor plasma (PPP) was prepared by centrifuging the remaining blood at 2000 x g for 15 minutes at room temperature allowing the centrifuge to coast to a stop without braking. The PRP was adjusted with PPP to a count of 2-3×10^8 platelets per mL. 400 uL of the PRP preparation and 50 uL of the compounds solution to be tested or saline were preincubated for 1 minute at 37° C. in a […].). 50 uL of adenosine 5' diphosphate (ADP) (50 um final concentration) was added to the cuvettes and the aggregation was monitored for 1 minute. All compounds are tested in duplicate. Results are calculated as follows: Percent of control=[(maximal OD minus initial OD of compound) divided by (maximal OD minus initial OD of control saline)]×100. The % inhibition=100-(percent of control).
The compounds tested and their median inhibitory concentrations (IC50) are recorded in Table I. IC50 's (dosage at which 50% of platelet aggregation is inhibited) were calculated by linear regression of the dose response curve.

Question: How did the inhibition at 10 µM (compound at 10^-5 M, read-out: % Inh. (inhibition of platelet aggregation)) turn out when `N=C(N)c1ccc(CNc2cccc(C(=O)NCCC(=O)O)c2)cc1` [Example 2, β-[[3-[4-(aminoiminomethyl)benzyl]aminobenzoyl]amino]propanoic acid] was run?
Answer: 28%

Question: With `N=C(N)c1ccc(CNc2cccc(C(=O)NC(CC(=O)O)c3cccnc3)c2)cc1` (stereo not drawn) [Example 4, β-[[3-[4-(aminoiminomethyl)benzyl]aminobenzoyl]amino]-3-pyridinepropanoic acid] as the compound, how does the IC50 read?
Answer: 6.8 µM

Question: Which IC50 does the source give for `N=C(N)c1ccc(CNCCC(=O)NC(CC(=O)O)c2cccnc2)cc1` (stereo not drawn) [Example 6, β-[[3-[4-(aminoiminomethyl)benzyl]aminopropanoyl]amino]-3-pyridinepropanoic acid] here?
Answer: 0.8 µM
